We go through eleven compounds from patent publication US11192888B2, “Antibacterial compounds” (priority 2017, dated 2021).

One series has as its system B. multivorans ATCC17616. The settings on record: ATCC17616, 25 h.
Another series deals with P. aeruginosa PAO1. The conditions noted are these: for activity against P. aeruginosa in comparison to the Dha containing compound 3: PAO1; for IC50 / % Growth inhibition at 100 μM: PAO1, 13 h.
For series [1], the system named is C. difficile ATCC 43255 (aka VPI 10463; ribotype 087). As to the kind of experiment: Mouse model of C. difficile-associated disease. The format is in vivo, C57BL/6 mice.
Another series concerns Strep. agalactiae. The settings on record: 13 h.
The subject of series [2] is Clostridium difficile 630Δerm. The settings on record: 13 h.
The next series has as its system Strep. pyogenes. The conditions noted are these: 13 h.
The test system of series [3] is clinical isolates and one wild-type strain of P. aeruginosa. As to the kind of experiment: Growth of P. aeruginosa clinical isolates and wild-type strain with compounds (FIG. 1). Type of series: cell-based, Pseudomonas aeruginosa. The conditions noted are these: isolates W4, W14, W23, W46 and PAO1; MH media, 13 hours (FIG. 1). How it is done: FIGS. 1a and 1b are graphs showing the effects of varying concentrations of compounds 2 and 3 according to the invention on the growth of different strains of P. aeruginosa in Müller-Hinton (MH) media, after 13 hours.
The antibacterial activity of compounds 2 and 3 were tested against clinical isolates and one wild-type strain of P. aeruginosa displaying varying antibiotic sensitivity.
The antibacterial activity of compounds 2 and 3 were tested against these clinical isolates and one wild-type strain of P. aeruginosa.

The conditions of series [4]: amide bond, 24-membered ring, PyBOP/HOBt/DIPEA, 0.5 mM.

Read-outs that look alike come from different tables or passages of the source. *1 amine or outer side, *2 acyl side, *3 side chain or, on linkers, in order; H or OH if unused. Where a SMILES comes first, the peptide text is derived from it. [ ]: non-standard residue; d: D form. dAla(ψthiazole) = C[C@@H](N[*:1])c1nc(C(=O)[*:2])cs1; Trp(4-Br) = N[C@@H](Cc1c[nH]c2cccc(Br)c12)C(=O)O; Trp(4-Cl) = N[C@@H](Cc1c[nH]c2cccc(Cl)c12)C(=O)O; Trp(4-OMe) = COc1cccc2[nH]cc(C[C@H](N)C(=O)O)c12; X1 = O=C(/C(=C/c1ccccc1)N[*:1])[*:2]; X2 = CC(C)/C=C(\N[*:1])C(=O)[*:2]; ΔVal = CC(C)=C(N)C(=O)O; Dha = C=C(N)C(=O)O; Sar = CNCC(=O)O

One may read the IC50 as the concentration needed to halve the response being measured. Higher therefore signals weaker potency. Take `C[C@H]1NC(=O)CNC(=O)[C@H](Cc2c[nH]c3cccc(Br)c23)NC(=O)[C@H](Cc2c[nH]c3ccccc23)NC(=O)c2csc(n2)[C@@H](C)NC(=O)CN(C)C(=O)/C(=C/c2ccccc2)NC1=O` [Compound 12, Cyclo[D-Ala-Thz-Trp-Trp(4-Br)-Gly-D-Ala-Dhp-Sar]] (cyclo(G[dA][X1][Sar][dAla(ψthiazole)]W[Trp(4-Br)])): in the series on B. multivorans ATCC17616, inhibition was half-maximal at 1.1 ± 0.2 µM (IC50). Moreover, in the series with P. aeruginosa PAO1, the “activity against P. aeruginosa in comparison to the Dha containing compound 3” value (from here on “activity against P. aeruginosa”) is recorded as “dramatic loss in activity”, the IC50 is above 100 µM and the “% Growth inhibition at 100 μM” value was 20.1 ± 5.4%.

Take `CCc1c(Cl)c(O)c(Cl)c(O)c1C(=O)O[C@H]1[C@H](O)[C@H](OC)[C@H](OC/C2=C\C=C\C[C@H](O)/C(C)=C/[C@H](CC)[C@@H](O[C@@H]3OC(C)(C)[C@@H](OC(=O)C(C)C)[C@H](O)[C@@H]3O)/C(C)=C/C(C)=C/C[C@@H]([C@@H](C)O)OC2=O)O[C@@H]1C` [Fidaxomicin, reference compound]: in series [1] (2.5 mg/kg), the “survival to the end of the study at day-21 post-infection” value is recorded as “survived to the end of the study”. Besides, the Mean survival in series [1] (2.5 mg/kg oral BD for 5 days) turned out to be 504.00 h.

For `C=C1NC(=O)[C@@H](C)NC(=O)CNC(=O)[C@H](Cc2c[nH]c3cccc(OC)c23)NC(=O)[C@H](Cc2c[nH]c3ccccc23)NC(=O)c2csc(n2)[C@@H](C)NC(=O)CN(C)C1=O` [Argyrin A, Cyclo[D-Ala-Thz-Trp-Trp(4-MeO)-Gly-D-Ala-Dha-Sar], reference compound] (cyclo(W[Trp(4-OMe)]G[dA][Dha][Sar][dAla(ψthiazole)])), in the series on B. multivorans ATCC17616, the IC50 worked out at 3.1 ± 1.7 µM. Besides, in the series on P. aeruginosa PAO1, the IC50 is 19.8 ± 1.6 µM and the “% Growth inhibition at 100 μM” value is 82.6 ± 7.4%.

For `c1cc(-c2nc3ccc(-c4ccc5nc(-c6ccncc6)[nH]c5c4)cc3[nH]2)ccn1` [SMT19969, reference compound], the Mean survival in series [1] (20 mg/kg oral BD for 5 days) was found to be 88.00 h.

Turning to `C=C1NC(=O)[C@@H](C)NC(=O)CNC(=O)[C@H](Cc2c[nH]c3cccc(Cl)c23)NC(=O)[C@H](Cc2c[nH]c3ccccc23)NC(=O)c2csc(n2)[C@@H](C)NC(=O)CN(C)C1=O` [Compound 2, Cyclo[D-Ala-Thz-Trp-Trp(4-Cl)-Gly-D-Ala-Dha-Sar]] (cyclo([Dha][Sar][dAla(ψthiazole)]W[Trp(4-Cl)]G[dA])), the IC50 is above 100 µM in the series on Strep. agalactiae; 2.9 ± 2.5 µM in the series with B. multivorans ATCC17616; 16.8 ± 2.9 µM in the series on P. aeruginosa PAO1; 0.18 ± 0.03 µM in series [2]; above 100 µM in the series with Strep. pyogenes. Also, in the series on P. aeruginosa PAO1, the “% Growth inhibition at 100 μM” value is 87.0 ± 1.0%. The “susceptibility of the isolates to the compound” value in series [3] is listed as “equally susceptible”.

For `CC(C)/C=C1\NC(=O)[C@@H](C)NC(=O)CNC(=O)[C@H](Cc2c[nH]c3cccc(Br)c23)NC(=O)[C@H](Cc2c[nH]c3ccccc23)NC(=O)c2csc(n2)[C@@H](C)NC(=O)CN(C)C1=O` [Compound 14, Cyclo[D-Ala-Thz-Trp-Trp(4-Br)-Gly-D-Ala-Dhl-Sar]] (cyclo(G[dA][X2][Sar][dAla(ψthiazole)]W[Trp(4-Br)])), 0.98 ± 0.1 µM corresponded to half-maximal inhibition in the series on B. multivorans ATCC17616 (IC50). In the series with P. aeruginosa PAO1, the “activity against P. aeruginosa” value is reported as “dramatic loss in activity”, the IC50 is above 100 µM and the “% Growth inhibition at 100 μM” value is 40.1 ± 6.8%.

`CC(C)=C1NC(=O)[C@@H](C)NC(=O)CNC(=O)[C@H](Cc2c[nH]c3cccc(Br)c23)NC(=O)[C@H](Cc2c[nH]c3ccccc23)NC(=O)c2csc(n2)[C@@H](C)NC(=O)CN(C)C1=O` [Compound 13, Cyclo[D-Ala-Thz-Trp-Trp(4-Br)-Gly-D-Ala-Dhv-Sar]] (cyclo(G[dA][ΔVal][Sar][dAla(ψthiazole)]W[Trp(4-Br)])) yielded an IC50 in the series on B. multivorans ATCC17616 of 1.54 ± 0.2 µM. Further, in the series on P. aeruginosa PAO1, the “activity against P. aeruginosa” value is “did not result in a notable change in activity”, the IC50 is 12.2 ± 0.2 µM and the “% Growth inhibition at 100 μM” value was found to be 85.1 ± 3.4%.

With `C=C1NC(=O)[C@@H](C)NC(=O)CNC(=O)[C@H](Cc2c[nH]c3cccc(Br)c23)NC(=O)[C@H](Cc2c[nH]c3ccccc23)NC(=O)c2csc(n2)[C@@H](COC)NC(=O)CN(C)C1=O` [Cyclo[D-Ser(OMe)-Thz-Trp-Trp(4-Br)-Gly-D-Ala-Dha-Sar]], in series [4] (from H-dSer(OMe)-Thz-Trp-Trp(4-Br)-Gly-dAla-Dha-Sar-OH?), the ring closure, yield after HPLC stood at 6%.

Compound `C=C1NC(=O)[C@@H](C)NC(=O)CNC(=O)[C@H](Cc2c[nH]c3cccc(Cl)c23)NC(=O)[C@H](Cc2c[nH]c3ccccc23)NC(=O)c2csc(n2)[C@@H](CO)NC(=O)CN(C)C1=O` [Cyclo[D-Ser-Thz-Trp-Trp(4-C1)-Gly-D-Ala-Dha-Sar]] showed a ring closure, yield after HPLC in series [4] (from H-dSer-Thz-Trp-Trp(4-Cl)-Gly-dAla-Dha-Sar-OH?) of 4%.

In series [4] (from H-dAla-Thz-Trp-Trp(4-Cl)-Gly-dAla-Thr-Sar-OH?), `C[C@H]1NC(=O)CNC(=O)[C@H](Cc2c[nH]c3cccc(Cl)c23)NC(=O)[C@H](Cc2c[nH]c3ccccc23)NC(=O)c2csc(n2)[C@@H](C)NC(=O)CN(C)C(=O)[C@H]([C@@H](C)O)NC1=O` [Cyclo[D-Ala-Thz-Trp-Trp(4-Cl)-Gly-D-Ala-Thr-Sar]] displayed a ring closure, yield after HPLC of 14%.

In the case of `CC(C)/C=C1\NC(=O)[C@@H](C)NC(=O)CNC(=O)[C@H](Cc2c[nH]c3cccc(Br)c23)NC(=O)[C@H](Cc2c[nH]c3ccccc23)NC(=O)c2csc(n2)[C@@H](C)NC(=O)CN(C)C1=O` [Cyclo[D-Ala-Thz-Trp-Trp(4-Br)-Gly-D-Ala-Dhl-Sar]], the ring closure, yield after HPLC in series [4] (from H-dAla-Thz-Trp-Trp(4-Br)-Gly-dAla-Dhl-Sar-OH?) is 35%.
